# According to patent publication US12410211B2, “V1A receptor partial agonist and method of use” (PharmaIN Corporation, priority 2020, dated 2025):
# Like-named read-outs stand apart in the source and are kept apart here. Marks after values point to notes of the source that are not given here.
# Legend:
# [1] = Acute diuretic activity of Terlipressin, Tolvaptan and combinations in Wistar rats (Example 5); type: in vivo
# Description: The animals were then treated with Terlipressin (Bachem, Torrance CA), Tolvaptan (Fisher Scientific, Waltham, MA) and combination of the two compounds at various concentrations administered subcutaneously (n=4). Test articles were Terlipressin 0.05 mg/Kg and 0.15 mg/Kg, Tolvaptan 0.3 mg/Kg, and 1.0 mg/Kg, Terlipressin 0.05 mg/Kg+Tolvaptan 0.3 mg/Kg, Terlipressin 0.05 mg/Kg+Tolvaptan 1.0 mg/Kg, Terlipressin 0.15 mg/Kg+Tolvaptan 0.3 mg/Kg, and Terlipressin 0.15 mg/Kg+1.0 mg/Kg. Furosemide (Fisher Scientific, Waltham, MA) was used as positive control and dosed at 20 mg/kg via oral gavage. Control dosed vehicle group (9% tween 80; Fisher Scientific, Waltham MA) administered subcutaneously was included and the resulting data was subtracted from individual test article data. After the dose, animals were placed in the metabolic cage (Tecniplast; Province of Varese, Italy) and urine was collected and measured at 2, 4 and 8 hours after the dosing of test articles. Urine volumes were divided by the body weight (pre-dose) times 100 to express in ml/100 g body weight.
# [2] = Acute diuretic activity of Tolvaptan and peptides of Formula (II) and (IV) in Wistar rats (Example 6); type: in vivo
# Description: In this study, Male Wistar Rats (˜8 weeks; Envigo; Somerset, NJ) were fasted overnight (18 hours; free access to water) followed by treatment with saline at 20 ml/Kg via oral gavage to have a uniform hydration of all the animals. The animals were then treated with various concentrations of test articles administered subcutaneously (n=4) (Table 5). Control dosed vehicle group (9% tween 80; Fisher Scientific, Waltham MA) administered subcutaneously was included and the resulting data was subtracted from individual test article data. After the dose, animals were placed in the metabolic cage (Tecniplast; Province of Varese, Italy) and urine was collected and measured at 2, 4 and 8 hours after the dosing of test articles. Urine volumes were divided by the body weight (pre-dose) times 100 to express in ml/100 g body weight. […] However, at any ratio, a tolvaptan dose of about 0.3 mg/Kg (i.e., 0.3+0.05 mg/Kg) administered in rats (allometrically equivalent to about 2-7 mg/human depending on persons weight) is an ideal dose that when combined with the composition of the present disclosure provides greater than 50% of the sum of individual diuretic effect administered alone. Low dose of 0.3 mg/Kg of subcutaneous tolvaptan is considered to be 13-fold below the effective safe human dose thus providing additional advantage to patients with liver disease. This can increase mean arterial blood pressure (MAP) which is a V1a effect caused by composition of the present disclosure while maintaining significant (at least 50% of the sum of individual diuretic effect administered alone) of both.
# [3] = cited from earlier work
# V1a receptor = target: T1, V1a receptor (Homo sapiens, UniProt P37288); assay: V1a Human Vasopressin GPCR Cell Based Agonist Calcium Flux Assay; settings: for Emax: read-out: V1a Highest agonist effect (% of AVP)
# T1 construct: host or cells: CHO cells
# T1 sequence (P37288 whole entry): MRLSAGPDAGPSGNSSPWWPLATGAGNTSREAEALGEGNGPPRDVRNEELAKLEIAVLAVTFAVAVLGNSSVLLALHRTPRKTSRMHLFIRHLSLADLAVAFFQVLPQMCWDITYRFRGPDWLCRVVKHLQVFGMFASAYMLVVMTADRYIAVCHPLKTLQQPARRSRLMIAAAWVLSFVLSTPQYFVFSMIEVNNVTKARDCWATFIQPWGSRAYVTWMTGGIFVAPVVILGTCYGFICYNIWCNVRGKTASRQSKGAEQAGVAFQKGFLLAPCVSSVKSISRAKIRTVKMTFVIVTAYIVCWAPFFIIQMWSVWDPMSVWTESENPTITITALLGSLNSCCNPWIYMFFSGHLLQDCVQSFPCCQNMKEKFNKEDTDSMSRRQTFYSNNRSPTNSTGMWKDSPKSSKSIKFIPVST
# [4] = Therapeutic index (NOAEL/NOEL): paleness, lethargy, ataxia observation in Sprague-Dawley rats (Example 7); type: in vivo; settings: for NOAEL at 24 h: male, Sprague-Dawley
# Outline: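 Male Sprague-Dawley rats, 8–10 weeks, under isoflurane (n=3 or 6), dosed IV or SC with test articles. Paleness judged by ear colour beside untreated controls; lethargy and ataxia scored by observation. Index expressed as NOAEL/NOEL ratio.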
# [5] = Telemetric evaluation of portal vein pressure in rats with bile duct ligation (Example 9); type: in vivo, Sprague Dawley rats; settings: for Percent decrease (%) in Mean Portal Vein Pressure (MPVP) from BDL baseline prior to treatment: BDL rats n = 4, 12 μg/kg subcutaneous
# Description: For this study, animals (Sprague Dawley rats (240-300 g at surgery from Charles River Laboratory) were maintained at room temperatures (20 to 22° C.) with 14-hour light, 10-hour dark cycle when not performing study procedures. The mean portal vein pressure (MPVP) reduction efficacy of a peptide of Formula ([…] [SEQ ID NO. 13]; Mpa and C are disulfide bonded; represented as TA-1) was compared to terlipressin in telemetered male with Bile Duct Ligation (BDL) and Sham surgery. On Study Day 1, rats received bile duct ligation surgery and telemetry implantation. The BDL group (n=4) had two stands of silk suture tightened and tied to occlude the bile duct; the sham group (n=3) had sutures loosely tied around the bile duct so that no occlusion occurred. After recovery from surgery, all rats had their portal vein pressure monitored continuously via telemetry until Day 22. […] Terlipressin was administered through intravenous bolus into a lateral tail vein on Day 20 and 21. All animals were dosed under manual restraint. Systolic portal vein pressure and diastolic portal vein pressure were measured to calculate the Mean Portal Vein Pressure ([…] was analyzed by averaging 5 minute intervals for the first 4 hours after dose and thereafter averaging 1 hour intervals after dose until 24 hours. […] Telemetric evaluation of […] [SEQ ID NO. 13] and Terlipressin on portal vein pressure in rats with bile duct ligation. The animal room temperatures were set to maintain 20 to 22° C. A 14-hour light, 10-hour dark cycle was implemented unless interrupted by study procedures. Efficacy was assessed by evaluating mean portal vein pressure (MPVP) at different concentrations of Formula 1 and Terlipressin in telemetered male Sprague Dawley rats (240-300 g at surgery from Charles River Laboratory) with Bile Duct Ligation (BDL) and Sham surgery. On Study Day 1, rats received bile duct ligation surgery and telemetry implantation. The BDL group (n=4) had two stands of silk suture tightened and tied to occlude the bile duct; the sham group (n=3) had sutures loosely tied around the bile duct so that no occlusion occurred. After recovery from surgery, all rats had their portal vein pressure monitored continuously via telemetry until Day 22. […] Formula 1 was administered at different concentrations subcutaneously on Day 15 to 19, and Day 23; Terlipressin was administered through intravenous bolus into a lateral tail vein on Day 20 and 21. All animals were dosed under manual restraint. Systolic portal vein pressure and diastolic portal vein pressure were measured to calculate the Mean Portal Vein Pressure ([…] was analyzed by averaging 5 minute intervals for the first 4 hours after dose and thereafter averaging 1 hour intervals after dose until 24 hours.
# [6] = S.C., at the Marked adverse effect dose
# [7] = S.C., at the Mild adverse effect dose
# [8] = in vivo, sc, S.C., rat, read-out: Highest dose with no-observed adverse effect level without lethargy (NOAEL)
# [9] = peptide alone 0.015 mg/kg subcutaneous
# [10] = peptide alone 0.05 mg/kg subcutaneous
compound,measurement,setting,value
Cc1ccccc1C(=O)Nc1ccc(C(=O)N2CCCC(O)c3cc(Cl)ccc32)c(C)c1 (centres unmarked) [Tolvaptan],Average mL of Urine per 100 gram body weight 8 hours cumulative (n = 4) minus Vehicle group (Tween 80); (SEM),[1]; Tolvaptan 0.3 mg/Kg subcutaneous,0.65 (0.16) mL per 100 gram body weight
same,Average mL of Urine per 100 gram body weight 8 hours cumulative (n = 4) minus Vehicle group (Tween 80); (SEM),[1]; Tolvaptan 1.0 mg/Kg subcutaneous,7.29 (0.46) mL per 100 gram body weight
same,Average 8 hours cumulative Urine Volume: mL per 100 gram body weight (SEM; n = 4) minus Tween 80 vehicle group,[2]; Tolvaptan 0.3 mg/kg subcutaneous,0.65 (0.16) mL per 100 gram body weight
"NCCCC[C@H](NC(=O)[C@@H]1CCCN1C(=O)[C@@H]1CSSC[C@H](N)C(=O)N[C@@H](Cc2ccc(O)cc2)C(=O)N[C@@H](Cc2ccccc2)C(=O)N[C@@H](CCC(N)=O)C(=O)N[C@@H](CC(N)=O)C(=O)N1)C(=O)NCC(N)=O [Lysine vasopressin (LVP), Lysine vasopressin, reference compound]",plasma half-life,[3]; in vivo,0.833 h
same,EC50,"V1a receptor; Table 3, CHO cells expressing human V1 receptor, read-out: Estimated V1a EC50 (nM), n = 2",1.65 nM
same,Emax,"V1a receptor; Table 3, n = 2",92.1%
same,V1a Highest agonist effect (% of AVP); n = 2,V1a receptor; Table 4,92.1 % of AVP
NS(=O)(=O)c1cc(C(=O)O)c(NCc2ccco2)cc1Cl [Furosemide],Average mL of Urine per 100 gram body weight 8 hours cumulative (n = 4) minus Vehicle group (Tween 80); (SEM),[1]; Furosemide 20 mg/kg oral gavage (positive control),1.73 (0.22) mL per 100 gram body weight
NC(=O)CC[C@@H]1NC(=O)[C@H](Cc2ccccc2)NC(=O)[C@H](Cc2ccc(O)cc2)NC(=O)[C@@H](N)CSSC[C@@H](C(=O)N2CCC[C@H]2C(=O)N[C@@H](CCCN=C(N)N)C(=O)NCC(N)=O)NC(=O)[C@H](CC(N)=O)NC1=O [Vasopressin],excreted through the kidney,[3]; in vivo,65%
same,metabolized by liver and kidney vasopressinases,[3]; in vivo,35%
same,protein binding,[3]; in vivo,not protein-bound
same,volume of distribution,[3]; plasma,0.14 L/kg
NCCCC[C@H](NC(=O)[C@@H]1CCCN1C(=O)[C@@H]1CSSCCC(=O)N[C@@H](Cc2ccc(O)cc2)C(=O)N[C@@H](Cc2ccccc2)C(=O)N[C@@H](CCC(N)=O)C(=O)N[C@@H](CC(N)=O)C(=O)N1)C(=O)NCC(N)=O [SEQ ID NO. 32],"Paleness (Duration, hrs; SD)",[4]; [6],(4.79 ± 0.08) hrs
same,"Paleness (Duration, hrs; SD)",[4]; [7],(4.45 ± 0.26) hrs
same,"Paleness (Duration, hrs; SD)","[4]; S.C., at the NOAEL dose",(3.54 ± 0.11) hrs
same,"Paleness (Duration, hrs; SD)","[4]; S.C., at the NOEL dose",None observed
same,Highest dose with no-observed effect level or paleness (NOEL),"[4]; S.C., rat",0.0005 mg/kg
same,NOAEL/NOEL (therapeutic index),"[4]; S.C., rat",20
same,NOAEL,[4]; [8],0.01 mg/kg
same,Marked adverse effect (Lowest dose first showed Ataxia),"[4]; rat, in vivo, sc",0.1 mg/kg
same,Mild adverse effect (Lowest dose first showed Lethargy),"[4]; rat, in vivo, sc",0.03 mg/kg
same,Average 8 hours cumulative Urine Volume: mL per 100 gram body weight (SEM; n = 4) minus Tween 80 vehicle group,[2]; peptide alone 0.005 mg/kg subcutaneous,0.80 (0.50) mL per 100 gram body weight
same,Average 8 hours cumulative Urine Volume: mL per 100 gram body weight (SEM; n = 4) minus Tween 80 vehicle group,[2]; [9],0.86 (0.28) mL per 100 gram body weight
same,Average 8 hours cumulative Urine Volume: mL per 100 gram body weight (SEM; n = 4) minus Tween 80 vehicle group,[2]; [10],0.74 (0.55) mL per 100 gram body weight
NC(=O)CC[C@@H]1NC(=O)[C@H](Cc2ccccc2)NC(=O)[C@H](Cc2ccc(O)cc2)NC(=O)CCSSC[C@@H](C(=O)N2CCC[C@H]2C(=O)N[C@H](CCCN=C(N)N)C(=O)NCC(N)=O)NC(=O)[C@H](CC(N)=O)NC1=O [desmopressin],half-life,[3]; in vivo,2 h
"NCC(=O)NCC(=O)NCC(=O)NCC(=O)NCC(=O)NCC(=O)NCCCC[C@H](NC(=O)[C@@H]1CCCN1C(=O)[C@@H]1CSSCCC(=O)N[C@@H](Cc2ccc(O)cc2)C(=O)N[C@@H](Cc2ccccc2)C(=O)N[C@@H](CCCC(N)=O)C(=O)N[C@@H](CC(N)=O)C(=O)N1)C(=O)NCC(N)=O [SEQ ID NO. 13, Mpa-Tyr-Phe-Hgn-Asn-Cys-Pro-Lys(X)a-Gly-NH2; (X)a = (Gly)6]",Emax,V1a receptor; n = 2,28.2%
same,drop in portal pressure compared to Terlipressin (41 ug/kg),"[5]; 12 ug/kg dose, BDL rats",more effective in providing a sustain drop in portal pressure
same,Percent decrease (%) in Mean Portal Vein Pressure (MPVP) from BDL baseline prior to treatment,[5]; Time 1 hr,5%
same,Percent decrease (%) in Mean Portal Vein Pressure (MPVP) from BDL baseline prior to treatment,[5]; Time 4 hr,−30.5%
same,Percent decrease (%) in Mean Portal Vein Pressure (MPVP) from BDL baseline prior to treatment,[5]; Time 7 hr,−10.5%
same,Percent decrease (%) in Mean Portal Vein Pressure (MPVP) from BDL baseline prior to treatment,[5]; Time 20 hr,−29.75%
same,"Paleness (Duration, hrs; SD)",[4]; [6],(>5.6)* hrs
same,"Paleness (Duration, hrs; SD)",[4]; [7],(6.23 ± 0.06) hrs
same,"Paleness (Duration, hrs; SD)","[4]; S.C., at the NOAEL dose",(6.07 ± 0.08) hrs
same,"Paleness (Duration, hrs; SD)","[4]; S.C., at the NOEL dose",None observed
same,Highest dose with no-observed effect level or paleness (NOEL),"[4]; S.C., rat",0.003 mg/kg
same,NOAEL at 24 h,[4]; [8],0.3 mg/kg
same,Marked adverse effect (Lowest dose first showed Ataxia),"[4]; rat, in vivo, sc",5.0 mg/kg
same,Mild adverse effect (Lowest dose first showed Lethargy),"[4]; rat, in vivo, sc",0.5 mg/kg
Mpa-Tyr-Phe-Gln-Asn-Cys-Pro-Lys(X)a-Gly-NH2; (X)a = (Gly)5 [SEQ ID NO. 33],Average 8 hours cumulative Urine Volume: mL per 100 gram body weight (SEM; n = 4) minus Tween 80 vehicle group,[2]; [9],1.11 (0.11) mL per 100 gram body weight
same,Average 8 hours cumulative Urine Volume: mL per 100 gram body weight (SEM; n = 4) minus Tween 80 vehicle group,[2]; [10],1.32 (0.09) mL per 100 gram body weight
same,Average 8 hours cumulative Urine Volume: mL per 100 gram body weight (SEM; n = 4) minus Tween 80 vehicle group,[2]; peptide alone 0.15 mg/kg subcutaneous,1.85 (0.20) mL per 100 gram body weight
"NCC(=O)NCC(=O)NCC(=O)NCC(=O)NCC(=O)NCC(=O)NCC(=O)NCC(=O)NCC(=O)NCCCC[C@H](NC(=O)[C@@H]1CCCN1C(=O)[C@@H]1CSSCCC(=O)N[C@@H](Cc2ccc(O)cc2)C(=O)N[C@@H](Cc2ccccc2)C(=O)N[C@@H](CCCC(N)=O)C(=O)N[C@@H](CC(N)=O)C(=O)N1)C(=O)NCC(N)=O [SEQ ID NO. 16, Mpa-Tyr-Phe-Hgn-Asn-Cys-Pro-Lys(X)a-Gly-NH2; (X)a = (Gly)9]",EC50,"V1a receptor; FIG. 2 / FIG. 3 legend, n=2, read-out: EC50 for V1a receptor",105 nM
same,Emax,"V1a receptor; Table 3, n = 2",28.1%
same,"Paleness (Duration, hrs; SD)",[4]; [6],(>6.99)* hrs
same,"Paleness (Duration, hrs; SD)",[4]; [7],(>6.14)* hrs
same,"Paleness (Duration, hrs; SD)","[4]; S.C., at the NOAEL dose",(7.14 ± 0.11) hrs
same,"Paleness (Duration, hrs; SD)","[4]; S.C., at the NOEL dose",None observed
same,Highest dose with no-observed effect level or paleness (NOEL),"[4]; S.C., rat",0.005 mg/kg
same,NOAEL/NOEL (therapeutic index),"[4]; S.C., rat",100
same,NOAEL at 24 h,[4]; [8],0.5 mg/kg
same,Marked adverse effect (Lowest dose first showed Ataxia),"[4]; rat, in vivo, sc",5.0 mg/kg
same,Mild adverse effect (Lowest dose first showed Lethargy),"[4]; rat, in vivo, sc",1.5 mg/kg
